Source: PubChem BioAssay (NCI)
Several values for one entry are separate records, joined by “and”; a condition that tells them apart may be missing. Equal values may be shown once.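 48-hour exposure; five concentrations; linearly interpolated endpoints. The concentration for 50% growth inhibition is given as GI50. TGI is the concentration that stops growth completely.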

Assays:
Assay in all cases: NCI tumour cell line growth inhibition, 48 h
[1] = tested on: HCC-2998 colon
[2] = tested on: MALME-3M melanoma
[3] = tested on: KM12 colon
[4] = tested on: ACHN renal
[5] = tested on: BT-549 breast
[6] = tested on: SF-295 CNS
[7] = tested on: TK-10 renal
[8] = tested on: NCI/ADR-RES ovarian
[9] = tested on: CCRF-CEM leukemia
[10] = tested on: RXF 393 renal

| SMILES | GI50 [1] [nM] | TGI [1] | GI50 [2] | TGI [2] | GI50 [3] [nM] | TGI [3] [nM] | GI50 [4] [nM] | TGI [4] [nM] | GI50 [5] [nM] | TGI [5] [nM] | GI50 [6] [nM] | TGI [6] | GI50 [7] [nM] | TGI [7] [nM] | GI50 [8] [nM] | TGI [8] [nM] | GI50 [9] [nM] | TGI [9] [nM] | GI50 [10] | TGI [10] |
| --- | --- | --- | --- | --- | --- | --- | --- | --- | --- | --- | --- | --- | --- | --- | --- | --- | --- | --- | --- | --- |
| c1csc(-c2cn3nc(-c4c[nH]c5ccccc45)sc3n2)c1 | 2990 | 26700 nM | 10400 nM | 36900 nM | 498 | 10500 | 3230 | 52500 | 2870 | 31700 | 1740 | 6440 nM | 5210 | 33500 | 561 | > 100000 | 2190 | 27200 | 2050 nM | 50000 nM |
| COc1cccc2c1ccc1nc3cccc(C(=O)N[C@H](C)CN(C)C)c3nc12 | 108 | 298 nM | 80.6 nM | 473 nM | 72.4 | 2330 | 42.6 | 10600 | 795 | 2930 | 58.6 | 2580 nM | 76.2 | 512 | 72.1 | 554 | 120 | 7000 | 98.4 nM | 350 nM |
| C[C@]12CCc3sc(NCCc4ccccc4)nc3C1=CC[C@@H]1[C@@H]2CC[C@]2(C)C(=O)CC[C@@H]12 | 8190 | > 100000 nM | 2180 nM | 6820 nM | 3600 | > 100000 | 1960 | 3750 | 2420 | > 100000 | 18900 | > 100000 nM | 4150 | > 100000 | 2310 | 7520 | 2630 | 40400 | 1730 nM | 4490 nM |
| Cc1cc(NCCN(C(C)C)C(C)C)nc(/N=C(\N)Nc2ccc(Cl)c(C(F)(F)F)c2)n1 | 214 | 469 nM | 183 nM | 403 nM | 674 | 1790 | 381 | 1060 | 1640 | 3590 | 752 | 2140 nM | 297 | 1040 | 1670 | 3450 | 335 | 1470 | 249 nM | 750 nM |
| COc1cc(NC(C)CCCN)c2ncccc2c1 (configuration not stated) | – | 31600 nM and 58500 nM | 19300 nM and 44400 nM | 35700 nM and 60900 nM | – | > 100000 | – | > 100000 | – | > 100000 | – | > 100000 nM | – | > 100000 | – | > 100000 | – | > 100000 | 17100 nM and 37400 nM | > 79600 nM and 100000 nM |
| COc1c(O)cc2oc(-c3ccc(O)cc3)cc(=O)c2c1O | – | 80300 nM | – | > 100000 nM | – | > 100000 | – | > 100000 | – | > 100000 | – | > 100000 nM | – | > 100000 | – | > 100000 | – | 65100 | – | > 100000 nM |
| NC(=O)c1ccc(I)c(N=O)c1 | 67500 | > 100000 nM | 34000 nM | > 100000 nM | 40700 | > 100000 | 30800 | > 100000 | 40300 | > 100000 | > 100000 | > 100000 nM | 34900 | > 100000 | 44900 | > 100000 | 40500 | > 100000 | 28700 nM | 66000 nM |
| COC1/C=C/C(C)C(C(C)C(OC)C(C)CCC(=O)C(C)C(C/C=C/N(C)C=O)OC)OC(=O)/C=C/C=C(\C)CC(OC)CC2=CC(=O)O[C@H](C2)C(C)C(OC)CC(OC)/C=C/C(C)C(OC)C1 (some centres not stated) | 4.6 | – | 21.3 nM | 58.2 nM and 31.5 nM | 6.96 | – | 28.2 | – | 108 | – | 27.7 | 159 nM and 16.5 nM | 17.4 | 72.9 | 102 | – | 21.8 | 36.7 | 37.8 nM | 141 nM and 37.6 nM |
